Measured values reported in patent US20250082633A1, “COMPOUNDS AND METHODS FOR MODULATING SPLICING” (REMIX THERAPEUTICS INC., priority 2021, published 2025).
Counter-ions that a name gives are not always drawn. Like-named read-outs stand apart in the source and are kept apart here.

How the values were obtained:
HTT mRNA = assay: RT-qPCR splicing assay, HTT canonical (CJ) and alternative (AJ) junction mRNA; type: cell-based; details: Homo sapiens; for IC50: read-out: HTT CJ IC50; for AC50: read-out: HTT AJ AC50
Method in brief: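 Splice-junction mRNAs (CJ, AJ) measured by TaqMan one-step RT-qPCR on cell lysates, using PPIA as reference for adherent A673 and GAPDH or GUSB for K562. Cells exposed for 24 h to 11 threefold concentrations up to 10 uM final, with DMSO at or below 0.25%.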

[1] = system: HiBiT-tagged HTT protein in K562 cells; assay: HiBit protein abundance assay, HTT; type: cell-based, human; details: K562 HiBiT-modified cells, 24 hours, luminescence
Description: (§1) Compounds described herein were used to screen for effects on quantitative protein abundance using a HiBit assay system (Promega). Quantitative protein abundance was determined by measuring the protein levels of HiBit-tagged protein targets expressed in cell culture via luminescence using the Nano-Glo HiBiT Lytic Detection System, which uses a split complementation assay format to reconstitute NanoBiT enzyme to generate a luminescent signal. A protein abundance assay was developed such that endogenous protein targets could be modified with the HiBiT peptide tag and their abundance could be assessed after compound treatment. Briefly, K562 cell lines containing a HiBiT-modification were treated with various compounds described herein (e.g., compounds of Formulas (I), (II), or (III)). After treatment for 24 hours, the protein abundance of a specific target was determined by measuring luminescence. • Promega Nano-Glo HiBiT Lytic Detection System (cat #N3030) • Corning 384-well TC-treated microplates (cat #3570) • Synthego Engineered Cells Knock-In Clones [table] Cells were maintained in IMDM with 10% FBS. Before the assay, cells were diluted with phenolphthalein-free growth media (IMDM+1% FBS media) and were seeded in a 384-well plate at a density of 10000 cells/well (for each cell line listed in Table 6). Each compound was prepared as a 10-point 3-fold serial dilution in DMSO with the top dose at a final concentration of 10 μM in the well. Unmodified K562 cells were added at the previously specified density with DMSO to serve as an assay baseline and positive control (PC) and DMSO only with the respective modified cell lines was added to the negative control (NC) columns. Final DMSO concentration was kept at or below 0.25%. Treated cell plates were placed in an incubator at 37° C. with 5% CO2 for 24 hours. After 24 hours, 25 μL of Complete HiBit Lytic reagent was added to each well at room temperature (e.g. one plate requiring 10 mL Lytic Buffer, 100 μL LgBiT Protein, 200 μL Lytic Substrate), shaken for 5 minutes at 600 RPM, then left to sit for 10 minutes for signal to stabilize before reading on a Spark Cyto plate reader (Tecan) with a 500 ms measurement time. To determine compound effects on protein abundance of each target in Table 6, the percent response for each respective cell line was calculated at each compound concentration as follows: For the normalized response at each concentration, a four-parameter logistical regression was fit to the data and the response was interpolated at the 50% value to determine a concentration for protein abundance at 50% (IC50) the untreated control.

[2] = system: HiBiT-tagged MYB protein in K562 cells; assay: HiBit protein abundance assay, MYB; type: cell-based, human; details: K562 HiBiT-modified cells, 24 hours, luminescence
Description: as §1

[3] = decrease in CJ mRNA levels, larger panel of genes, Table 3
[4] = decrease in canonical junction mRNA, A673 or K562 cells, 24 hours treatment, Table 2
[5] = increase in alternative junction mRNA, A673 or K562 cells, 24 hours treatment, Table 2

SMILES	IC50 (HTT mRNA; [3])	IC50 (HTT mRNA; [4])	AC50 (HTT mRNA; [5])	IC50 [1]	IC50 [2]	AC50 (HTT mRNA; 24 h)	IC50 (HTT mRNA; 24 h)	IC50 (HTT mRNA)
Cc1cn2nc(-c3cc(F)c4nn([C@H]5CCNC6(CC6)C5)cc4c3)cc(C)c2n1 [Compound 172]	< 100 nM	< 100 nM	< 100 nM	< 100 nM	< 100 nM	–	–	–
Cc1cn2nc(-c3cc(F)c4nn(C5CCN(CC6CC6)C6(CC6)C5)cc4c3)cc(C)c2n1 (stereo not shown) [Compound 183, 6-[2-[4-(cyclopropylmethyl)-4-azaspiro[2.5]octan-7-yl]-7-fluoro-indazol-5-yl]-2,8-dimethyl-imidazo[1,2-b]pyridazine]	< 100 nM	< 100 nM	< 100 nM	< 100 nM	100 to 1000 nM	–	–	–
Cc1ccc2cc(-c3cc(F)c4nn(C5CCNCC5)cc4c3)ccc2n1 [Compound 163, 6-[7-fluoro-2-(4-piperidyl)indazol-5-yl]-2-methyl-quinoline]	> 10000 nM	> 10000 nM	> 10000 nM	1000 to 10000 nM	1000 to 10000 nM	–	–	–
Cc1cn2nc(-c3cc4cn(C5CCNCC5)nc4c(OCc4ccccc4)n3)cc(C)c2n1 [Compound 153, 6-[7-benzyloxy-2-(4-piperidyl)pyrazolo [3,4-c]pyridin-5-yl]-2,8-dimethyl-imidazo[1,2-b]pyridazine]	> 10000 nM	> 10000 nM	1000 to 10000 nM	1000 to 10000 nM	1000 to 10000 nM	–	–	–
Cc1cn2nc(-c3cc(F)c4nn(C5CCNCC5)cc4c3)cc(C)c2n1 [Compound 122, 6-(7-fluoro-2-(piperidin-4-yl)-2H-indazol-5-yl)-2,8-dimethylimidazo [1,2-b]pyridazine hydrochloride salt]	–	–	–	< 100 nM	< 100 nM	< 100 nM	< 100 nM	< 100 nM
Cc1nc2ccc(-c3cc(F)c4nn(C5CCNCC5)cc4c3)cc2s1 [Compound 134, 6-(7-fluoro-2-(piperidin-4-yl)-2H-indazol-5-yl)-2-methylbenzo[d]thiazole]	1000 to 10000 nM	1000 to 10000 nM	> 10000 nM	1000 to 10000 nM	1000 to 10000 nM	–	–	–
Cc1cn2nc(-c3cc(F)c4nn(C5CCNC6(CCC6)C5)cc4c3)cc(C)c2n1 (stereo not shown) [Compound 189, 6-[2-(5-azaspiro[3.5]nonan-8-yl)-7-fluoro-indazol-5-yl]-2,8-dimethyl-imidazo[1,2-b]pyridazine]	< 100 nM	< 100 nM	< 100 nM	< 100 nM	100 to 1000 nM	–	–	–
COc1cc(-c2cc3cn(C)nc3cc2O)nc2cn(C3CCNCC3)nc12 [Compound 140, 5-[7-methoxy-2-(4-piperidyl)pyrazolo[4,3-b]pyridin-5-yl]-2-methyl-indazol-6-ol]	1000 to 10000 nM	1000 to 10000 nM	1000 to 10000 nM	1000 to 10000 nM	1000 to 10000 nM	–	–	–
CCN1CCC(n2cc3cc(-c4cc(C)c5nc(C)cn5n4)cc(F)c3n2)CC1 [Compound 146, 6-[2-(1-ethyl-4-piperidyl)-7-fluoro-indazol-5-yl]-2,8-dimethyl-imidazo[1,2-b]pyridazine]	< 100 nM	< 100 nM	< 100 nM	< 100 nM	100 to 1000 nM	–	–	–
Cc1cn2nc(-c3cc(F)c4nn(C5CCN(CCO)C6(CC6)C5)cc4c3)cc(C)c2n1 (stereo not shown) [Compound 180, 2-[7-[5-(2,8-dimethylimidazo[1,2-b]pyridazin-6-yl)-7-fluoro-indazol-2-yl]-4-azaspiro[2.5]octan-4-yl]ethanol]	–	–	–	< 100 nM	100 to 1000 nM	< 100 nM	< 100 nM	< 100 nM
Cc1nc2ccc(-c3cc(F)c4nn(C5CCNCC5)cc4c3)cc2o1 [Compound 135, 6-[7-fluoro-2-(4-piperidyl)indazol-5-yl]-2-methyl-1,3-benzoxazole]	100 to 1000 nM	100 to 1000 nM	100 to 1000 nM	< 100 nM	100 to 1000 nM	–	–	–
Cc1cn2nc(-c3cc4cn(C5CCNCC5)nc4cc3O)cc(C)c2n1 [Compound 154, 5-(2,8-dimethylimidazo[1,2-b]pyridazin-6-yl)-2-(piperidin-4-yl)-2H-indazol-6-ol]	< 100 nM	< 100 nM	100 to 1000 nM	< 100 nM	100 to 1000 nM	–	–	–
Cc1cn2cc(-c3cc(F)c4nn(C5CCNCC5)cc4c3)cc(C)c2n1 [Compound 125, 5-(2,8-dimethylimidazo[1,2-a]pyridin-6-yl)-7-fluoro-2-(4-piperidyl)indazole]	100 to 1000 nM	100 to 1000 nM	100 to 1000 nM	< 100 nM	100 to 1000 nM	–	–	–
Cc1cn2nc(-c3cc4cn(C5CCNCC5)nc4cn3)cc(C)c2n1 [Compound 147, 2,8-dimethyl-6-[2-(4-piperidyl)pyrazolo[3,4-c]pyridin-5-yl]imidazo[1,2-b]pyridazine]	100 to 1000 nM	100 to 1000 nM	100 to 1000 nM	100 to 1000 nM	100 to 1000 nM	–	–	–
Cc1cn2nc(-c3cc(F)c4nn(C5CCN(C)CC5)cc4c3)cc(C)c2n1 [Compound 150, 6-[7-fluoro-2-(1-methyl-4-piperidyl)indazol-5-yl]-2,8-dimethyl-imidazo[1,2-b]pyridazine]	< 100 nM	< 100 nM	< 100 nM	< 100 nM	100 to 1000 nM	–	–	–
Fc1cc(-c2ccc3ccncc3c2)cc2cn(C3CCNCC3)nc12 [Compound 158, 7-[7-fluoro-2-(4-piperidyl)indazol-5-yl]isoquinoline]	> 10000 nM	> 10000 nM	> 10000 nM	1000 to 10000 nM	1000 to 10000 nM	–	–	–
Cc1cn2nc(-c3cc(F)c4nn(C5CCN(CC6CC6)CC5)cc4c3)cc(C)c2n1 [Compound 149, 6-[2-[1-(cyclopropylmethyl)-4-piperidyl]-7-fluoro-indazol-5-yl]-2,8-dimethyl-imidazo[1,2-b]pyridazine]	< 100 nM	< 100 nM	< 100 nM	< 100 nM	100 to 1000 nM	–	–	–
Cc1cn2nc(-c3cc(F)c4nn(C5CCN(C)C6(CC6)C5)cc4c3)cc(C)c2n1 (stereo not shown) [Compound 174, 6-[7-fluoro-2-(4-methyl-4-azaspiro[2.5]octan-7-yl)indazol-5-yl]-2,8-dimethyl-imidazo[1,2-b]pyridazine]	< 100 nM	< 100 nM	< 100 nM	< 100 nM	100 to 1000 nM	–	–	–
Cc1cc(-n2cc3cc(N4CCNCC4)cc(F)c3n2)cc2cn(C)nc12 [Compound 117, 2-(2,7-dimethylindazol-5-yl)-7-fluoro-5-piperazin-1-yl-indazole]	> 10000 nM	> 10000 nM	1000 to 10000 nM	1000 to 10000 nM	1000 to 10000 nM	–	–	–
Cc1c(O)c(-c2ccc3nn(C4CCNCC4)nc3n2)cc2cn(C)nc12 [Compound 113, 2,7-dimethyl-5-[2-(4-piperidyl)triazolo[4,5-b]pyridin-5-yl]indazol-6-ol]	1000 to 10000 nM	1000 to 10000 nM	1000 to 10000 nM	1000 to 10000 nM	1000 to 10000 nM	–	–	–
Cc1cc(-n2cc3cc(N4CCNCC4)ccc3n2)cc2cn(C)nc12 [Compound 121, 2,7-dimethyl-5-(5-piperazin-1-ylindazol-2-yl)indazole]	> 10000 nM	> 10000 nM	> 10000 nM	> 10000 nM	> 10000 nM	–	–	–
Cn1cc2cc(-c3ccc4nn(C5CCNCC5)cc4n3)c(O)cc2n1 [Compound 110, 2-methyl-5-[2-(4-piperidyl)pyrazolo[4,3-b]pyridin-5-yl]indazol-6-ol]	100 to 1000 nM	100 to 1000 nM	1000 to 10000 nM	100 to 1000 nM	100 to 1000 nM	–	–	–
Cc1cc(-n2cc3cc(C4CCNCC4)cc(F)c3n2)cc2cn(C)nc12 [Compound 115, 2-(2,7-dimethylindazol-5-yl)-7-fluoro-5-(4-piperidyl)indazole]	1000 to 10000 nM	1000 to 10000 nM	1000 to 10000 nM	1000 to 10000 nM	1000 to 10000 nM	–	–	–
